Measured values taken from article PMC10648349, “Aromatic Diboronic Acids as Effective KPC/AmpC Inhibitors” (Molecules, 2023).
Values after ≈ are worked out from the molar mass of the structure shown.

Tests used:
[1] = test system: K. pneumoniae ATCC BAA 1705 KPC-2-positive; assay: combination disc test CDT-KPC; type: cell-based; settings: Klebsiella pneumoniae, BAA1705; agent 0.1 mg per disc; read-out: Diameter of inhibition zone, MEM-10 disc with agent
[2] = test system: C. guilliermondii IBA 155; assay: antifungal activity (disc-diffusion, MIC, MFC); type: cell-based, Candida guilliermondii; settings: Meyerozyma guilliermondii, IBA155; for zone of inhibition at 0.4 mg/disc: 0.4 mg per disc, 9 mm disc (fluconazole 0.025 mg, 6 mm disc), - no zone, read-out: Diameter of inhibition zone; for MIC: fluconazole by Etest
Outline: (§1)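 Disc-diffusion (0.4 mg compound per disc, DMSO solutions), MIC, and MBC for bacteria or MFC for yeasts, run per EUCAST and CLSI recommendations. References: nitrofurantoin for Gram-negative rods, linezolid for Gram-positive bacteria, fluconazole for fungi.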

[3] = test system: P. aeruginosa MUW 700 cAmpC-positive; assay: checkerboard microdilution, antibiotic plus tested agent; type: cell-based, Pseudomonas aeruginosa
Outline: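 Chequerboard layout: tested agent in three two-fold steps (4–16 mg/L) crossed with seven β-lactam dilutions (1–64 mg/L), meropenem for KPC strains and ceftazidime for the cAmpC strain. FICI from first non-growth wells, off-scale MICs raised one doubling; ≤0.5 counts as synergy, >4 antagonism.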

[4] = test system: E. coli 77 CMY-2(+); assay: MIC of tested agent alone, microdilution; type: cell-based; settings: Escherichia coli; read-out: MIC of agent alone
Outline: (§2)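 Two-fold checkerboard dilutions pair β-lactams (1–64 mg/L) with tested agents (4–16 mg/L); agent MICs alone come from parallel microdilution.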

[5] = test system: E. coli 76 KPC-2(+); assay: MIC of tested agent alone, microdilution; type: cell-based; settings: Escherichia coli; read-out: MIC of agent alone
Outline: as §2

[6] = test system: K. pneumoniae 83 KPC-3(+), CTX-M-3(+); assay: MIC of tested agent alone, microdilution; type: cell-based; settings: Klebsiella pneumoniae; read-out: MIC of agent alone
Outline: as §2

[7] = test system: P. aeruginosa MUW 700 AmpC(+); assay: MIC of tested agent alone, microdilution; type: cell-based; settings: Pseudomonas aeruginosa; read-out: MIC of agent alone
Outline: as §2

[8] = test system: K. pneumoniae ATCC BAA-1705 KPC-2(+); assay: MIC of tested agent alone, microdilution; type: cell-based; settings: Klebsiella pneumoniae, ATCCBAA1705; read-out: MIC of agent alone
Outline: as §2

[9] = test system: K. pneumoniae 81 KPC-3(+); assay: MIC of tested agent alone, microdilution; type: cell-based; settings: Klebsiella pneumoniae; read-out: MIC of agent alone
Outline: as §2

[10] = test system: S. aureus ATCC 6538P; assay: direct antimicrobial activity (disc-diffusion, MIC, MBC); type: cell-based; settings: Staphylococcus aureus, ATCC6538P; for zone of inhibition at 0.4 mg/disc: 0.4 mg per disc, 9 mm disc (linezolid 0.03 mg, 6 mm disc), - no zone, read-out: Diameter of inhibition zone
Outline: as §1

[11] = test system: S. epidermidis ATCC 12228; assay: as above; type: cell-based; settings: Staphylococcus epidermidis, ATCC12228; for zone of inhibition at 0.4 mg/disc: 0.4 mg per disc, 9 mm disc (linezolid 0.03 mg, 6 mm disc), - no zone, read-out: Diameter of inhibition zone
Outline: as §1

[12] = test system: E. faecalis ATCC 29212; assay: as above; type: cell-based; settings: Enterococcus faecalis, ATCC29212
Outline: as §1

[13] = test system: S. aureus ATCC 43300 MRSA; assay: as above; type: cell-based; settings: Staphylococcus aureus; for zone of inhibition at 0.4 mg/disc: 0.4 mg per disc, 9 mm disc (linezolid 0.03 mg, 6 mm disc), - no zone, read-out: Diameter of inhibition zone
Outline: as §1

[14] = test system: E. faecium ATCC 6057; assay: as above; type: cell-based; settings: Enterococcus faecium, ATCC6057
Outline: as §1

[15] = test system: B. subtilis ATCC 6633; assay: direct antimicrobial activity (disc-diffusion); type: cell-based; settings: Bacillus subtilis, ATCC6633; 0.4 mg per disc, 9 mm disc (linezolid 0.03 mg, 6 mm disc); - no zone; read-out: Diameter of inhibition zone
Outline: as §1

[16] = test system: S. cerevisiae ATCC 9763; assay: antifungal activity (disc-diffusion, MIC, MFC); type: cell-based; settings: Saccharomyces cerevisiae, ATCC9763; for zone of inhibition at 0.4 mg/disc: 0.4 mg per disc, 9 mm disc (fluconazole 0.025 mg, 6 mm disc), - no zone, read-out: Diameter of inhibition zone; for MIC: fluconazole by Etest
Outline: as §1

[17] = test system: C. albicans ATCC 90028; assay: antifungal activity (disc-diffusion, MIC, MFC); type: cell-based; settings: Candida albicans, ATCC90028; for MIC: fluconazole by Etest
Outline: as §1

[18] = test system: C. tropicalis ATCC 750; assay: antifungal activity (disc-diffusion, MIC, MFC); type: cell-based; settings: Candida tropicalis, ATCC750; for MIC: fluconazole by Etest
Outline: as §1

[19] = test system: C. tropicalis IBA 171; assay: antifungal activity (disc-diffusion, MIC, MFC); type: cell-based; settings: Candida tropicalis, IBA171; for MIC: fluconazole by Etest
Outline: as §1

[20] = test system: P. aeruginosa MUW 700 cAmpC-positive; assay: combination disc test CDT-AmpC; type: cell-based; settings: Pseudomonas aeruginosa; agent 0.1 mg per disc; read-out: Diameter of inhibition zone, CAZ-30 disc with agent
[21] = 0.4 mg per disc, 9 mm disc (linezolid 0.03 mg, 6 mm disc), - no zone, read-out: Diameter of inhibition zone
[22] = 0.4 mg per disc, 9 mm disc (fluconazole 0.025 mg, 6 mm disc), - no zone, read-out: Diameter of inhibition zone

MIC [2] [µg/mL]	MIC [4] [µg/mL]	MIC [5] [µg/mL]	MIC [6] [µg/mL]	MIC [7] [µg/mL]	MIC [8] [µg/mL]	MIC [9] [µg/mL]	MIC [10] [µg/mL]	MIC [11] [µg/mL]	MIC [12] [µg/mL]	MIC [13] [µg/mL]	MIC [14] [µg/mL]	Compound	zone of inhibition at 100 µg/disc [1] [mm]	zone of inhibition at 0.4 mg/disc [2] [mm]	Average FICI with ceftazidime [3]	Interpretation of the average FICI with ceftazidime [3]	Interpretation of the lowest FICI with ceftazidime [3]	The lowest FICI with ceftazidime [3]	zone of inhibition at 0.4 mg/disc [11] [mm]	zone of inhibition at 0.4 mg/disc [15] [mm]	also measured
200 (≈ 991 µM)	400	400	400	> 400	400	400	25 (≈ 124 µM)	25 (≈ 124 µM)	> 400	200 (≈ 991 µM)	> 400	OB(O)c1cc(F)c(B(O)O)c(F)c1 [1d]	12	16	0.43	S (FICI ≤ 0.5, synergy)	S (FICI ≤ 0.5, synergy)	0.27	21	15	zone of inhibition at 0.4 mg/disc [16]: 13 mm; MIC [16]: 200 µg/mL (≈ 991 µM); MIC [17]: 200 µg/mL (≈ 991 µM); MIC [18]: 400 µg/mL (≈ 1980 µM); MIC [19]: 200 µg/mL (≈ 991 µM); zone of inhibition at 100 µg/disc [20]: 17 mm
> 400	100	100	200	200	200	200	12.5 (≈ 62 µM)	25 (≈ 124 µM)	200 (≈ 991 µM)	25 (≈ 124 µM)	100 (≈ 496 µM)	OB(O)c1cc(F)c(B(O)O)cc1F [1e]	11	16	0.38	S (FICI ≤ 0.5, synergy)	S (FICI ≤ 0.5, synergy)	0.29	21	28	zone of inhibition at 0.4 mg/disc [10]: 20 mm; zone of inhibition at 0.4 mg/disc [12, 21]: 15 mm; zone of inhibition at 0.4 mg/disc [13]: 26 mm; zone of inhibition at 0.4 mg/disc [14, 21]: 14 mm; zone of inhibition at 0.4 mg/disc [16]: 13 mm; MIC [16]: 400 µg/mL (≈ 1980 µM); MIC [17]: > 400 µg/mL; MIC [18]: > 400 µg/mL; MIC [19]: > 400 µg/mL; zone of inhibition at 100 µg/disc [20]: 18 mm
50 (≈ 228 µM)	100	100	100	> 400	100	100	50 (≈ 228 µM)	50 (≈ 228 µM)	400 (≈ 1820 µM)	200 (≈ 910 µM)	200 (≈ 910 µM)	OB(O)c1cc(F)c(B(O)O)c(F)c1F [1f]	6	29	0.43	S (FICI ≤ 0.5, synergy)	S (FICI ≤ 0.5, synergy)	0.27	17	13	zone of inhibition at 0.4 mg/disc [10]: 17 mm; zone of inhibition at 0.4 mg/disc [13]: 16 mm; zone of inhibition at 0.4 mg/disc [16]: 20 mm; MIC [16]: 50 µg/mL (≈ 228 µM); zone of inhibition at 0.4 mg/disc [17, 22]: 24 mm; MIC [17]: 50 µg/mL (≈ 228 µM); zone of inhibition at 0.4 mg/disc [18, 22]: 18 mm; MIC [18]: 100 µg/mL (≈ 455 µM); zone of inhibition at 0.4 mg/disc [19, 22]: 20 mm; MIC [19]: 50 µg/mL (≈ 228 µM); zone of inhibition at 100 µg/disc [20]: 17 mm
